Three molecules from patent US20250018066A1, “Ophthalmic dye composition” (Vitreq B.V., priority 2016, published 2025) can be followed below.

Broadly, the viscosity is the resistance of a fluid to flow.

A short description of one data set: Density of dye solutions. Type of data set: physicochemical. As to the method:
(§1) Density and viscosity can be changed by the addition of diglycerol or a gadolinium complex or a combination of both. For sinking of the dye solution to the bottom of the eye, density is more important than viscosity; the latter reduces, however, possible mixing for solutions which sink slowly. The density of dye solutions can be increased from 1.003 grams per milliliter (at 25° C.) to 1.028, when 10 volume % of a 0.5 M solution of gadopentetate is added to a final concentration of gadopentetate of 0.05 M, and to 1.048 when 20 volume % of a 0.5 M solution of gadopentetate is added to a final concentration of 0.10 M. The resulting viscosities are 1.125 mPa·s and 1.258 mPa·s, respectively. For a 5% addition of named gadopentetate solution, a density of 1.016 gram per milliliter and a viscosity of 1.117 mPa·s is obtained.

Data set [1] can be described thus: Viscosity of dye solutions. In kind it is physicochemical. As to the method: as §1
The next data set relates to retina. Kind of data set: Staining of porcine retina with dye preparations, contrast quantified from photographs. Particulars: in words; compared with prior art agents like PEG. The text has this:
The eyes were kept on ice until used.
The upper part of the eye, including the cornea, iris, and lens, was removed with an orbital section. The vitreous body was removed to get access to the retina. The retina was rinsed three times with phosphate-buffered saline (PBS). Dye solutions were applied to the retina for 30 seconds, and the retina was then washed three times with PBS.
As an example of the visual impression of the stained retina, photos were taken. For photographic recording of the result of the staining, the staining was limited by applying a glass tube of a diameter of 10 mm. Care was taken that no dye could reach the cellular layer of the retina. […]
As an example of quantification, the pictures in FIGS. 1A-J were quantified by measuring the optical densities (expressed as grey values on a scale from 0 (black) to 255 (white)) of a rectangular area within the stained portion of the retina and a rectangular area outside the stained portion as background (ensuring that no blood vessels where present in the rectangular areas), and calculating the ratio of the grey values of the background to that of the stain. […] Toxicity was measured in ARPE cells. […] Toxicity is expressed as percent reduction of cell viability in comparison to a control incubated with PBS instead of the dye solution.

The nature of data set [2]: Osmotic pressure contribution of density-increasing agent. The following applies: in words. In kind it is physicochemical.
The mark [3] stands for this setting: 10 volume % of 0.5 M solution added, final concentration 0.05 M.
[4] abbreviates: 20 volume % of 0.5 M solution added, final concentration 0.10 M.

As to `O=C([O-])CN(CCN(CC(=O)[O-])CC(=O)O)CCN(CC(=O)[O-])CC(=O)O.[Gd+3]` [gadopentetate], the density came to 1.016 gram per milliliter in “Density of dye solutions” (5% addition of 0.5 M solution), 1.028 grams per milliliter in the data set “Density of dye solutions” (setting [3]) and 1.048 grams per milliliter in “Density of dye solutions” (setting [4]). Further, the figures for the viscosity in data set [1] (5% addition of 0.5 M solution), in data set [1] (setting [3]) and in data set [1] (setting [4]) were 1.117 mPa·s, 1.125 mPa·s and 1.258 mPa·s, respectively.

Consider `OCC(O)COCC(O)CO` (stereo not drawn) [diglycerol], for which the density in “Density of dye solutions” (addition of 5 weight percent) is 1.020 grams per milliliter. In addition, the “effect of density agent on staining efficiency” value in the data set with retina was “does not decrease staining efficiency”. The “osmotic pressure / osmotic activity” value in data set [2] was “without increasing osmotic pressure substantially”; in data set [2] (listed as DG), “not even osmotically active”. Besides, the viscosity in data set [1] (addition of 5 weight percent) is recorded as 1.191 mPa·s.

With `OCC(O)COCC(O)COCC(O)CO` (stereo not drawn) [triglycerol], in data set [2], the “osmotic pressure / osmotic activity” value was “without increasing osmotic pressure substantially”.
